From PMC6986439, “Sultiame pharmacokinetic profile in plasma and erythrocytes after single oral doses: A pilot study in healthy volunteers” (Pharmacology Research & Perspectives, 2020)
Like-named read-outs stand apart in the source and are kept apart here.

Legend:
[1] = Noncompartmental pharmacokinetics after single oral doses in healthy volunteers; assay type: in vivo, human; conditions: for half-life / Cmax / AUC / Tmax / CL renal: male, human; for AUC: read-out: AUC(0‐inf); for Tmax: read-out: Median tmax (range); for CL renal / Recovery unchanged: urine; for CL renal: read-out: Renal clearance (converted)
Source text: Eligible subjects for the clinical study were healthy adult male volunteers aged 18‐45 years, with a body weight ranging between 55 and 95 kg and a body mass index of 18‐29 kg/m^2. Subjects with a history or evidence of clinically significant diseases or interfering conditions were excluded. Other exclusion criteria included: history of any clinically significant laboratory value including serology for hepatitis and HIV, relevant alcohol or drug abuse, recent acute illness, or use of any medication the week prior to study.
Single oral doses of 50, 100, and 200 mg of sultiame (Ospolot®, immediate‐release coated tablets) were administered in fasting conditions, in open‐label, during periods 1, 2, and 3, respectively, at 4‐6 weeks interval. On each period, serial plasma and whole blood samples were collected predose, then at 15, 30 min, 1, 2, 3, 4, 5, 6, 8, 10, 24, 48, 72 168, 336, and 504 hours postdose. Plasma and whole blood samples were stored at − 80°C until analysis. Hematocrit was measured using a microhematocrit centrifuge machine (Haematokrit 200®, Hettich AG, Bäch, Switzerland) on each occasion to calculate intraerythrocytic concentrations. Urine PK samples were collected in 6 fractions, before dosing, from 0‐2, 2‐4, 4‐8, 8‐10, and 10‐24 hours postdose. Urine pH was measured on each fraction.
The quantification of sultiame in whole blood, plasma, and urine was performed using a high‐performance liquid chromatography coupled to tandem triple quadrupole mass spectrometry (LC‐MS/MS) method developed and validated purposely for the trial. Briefly, 300 µL of methanol (MeOH) containing the internal standard (IS) sultiame‐D4 (Toronto Research Chemicals, Canada) was added to 100 µL of human plasma, hemolyzed whole blood, or hemolyzed red blood cells, for protein precipitation. Urine samples were processed similarly. After vortex, sonication for 30 seconds, and centrifugation steps, 250 µL of supernatant was transferred into a glass vial with insert, followed by dilution with 250 µL of pure water and a final vortex step, prior to LC‐MS/MS analysis. Chromatographic analyses were carried out on a XSelect HSS T3 column (Waters, Milford, MA, USA) using a water‐acetonitrile gradient over 5 minutes. Detection was performed with a triple quadrupole mass spectrometer (TSQ Quantum Ultra, ThermoFisher Scientific, Waltham, MA, USA) using the m/z transitions 289.0 → 225.1 for sultiame, and 293.0 → 229.1 for sultiame‐D4. Lower limits of detection and quantification of the method were 0.001 and 0.01 µg/mL, respectively, with a dynamic range extending up to 50 µg/mL. […] Deviations from nominal concentration (inaccuracy) of internal QCs were comprised within − 1.9 to + 11.7% over the calibration range. […] Metabolites, whose chemical structure is still elusive, were not determined.
Erythrocytic concentrations (Cery) were deduced from whole blood and plasma measurements as: Cery=Cwhole blood-Cplasma·1-Ht/Ht
Plasma, whole blood, and urine sultiame PK parameters were first computed for each volunteer using standard noncompartmental calculations with Stata® (version 13, StataCorp. 2013, Stata Statistical Software, College Station TX, USA).
The area under the curve for a single dose (AUC0‐inf) was calculated using the log trapezoidal rule with extrapolation to infinity. The terminal rate constant ( λz ) was derived from a two‐exponential model curve. CL/F was calculated as the dose divided by AUC0‐inf, the half‐life (t1/2) as ln(2)/ λz , and V/F as (CL/F)/ λz .

erythrocytes = test: In vitro spiking experiment: sultiame exchanges between plasma and erythrocytes; assay type: in vitro ADME, human
Protocol: A spiking experiment was performed to better characterize sultiame exchanges between plasma and erythrocytes. The influx into cells was investigated through spiking fresh human whole blood on EDTA at different target concentrations (1, 5, 10, 20, 40, and 80 mg/L) and different temperatures (4, 21, and 37°C), followed by sampling at 0, 2, 4, 6, 8, 10, 15, 30, 60, 120, and 180 min. The efflux was investigated through incubating whole blood for 1 h at 2 concentrations (10 and 40 mg/L) at 37°C, centrifugating and briefly washing the erythrocytes with NaCl 0.9%, and letting them equilibrate with fresh plasma while drawing samples at 0, 2, 4, 6, 8, 10, 15, 30, 60, 120, 180 minutes, and 24 hours.
In addition, competition studies were performed with two other antiepileptic agents known for their affinity for CA (zonisamide and topiramate), added at equimolar concentration to 20 mg/L of sultiame. Similar ranges of inhibition constants for CA II were reported in the literature for these three substances.13 Samples (1 mL) were drawn before and at 2, 4, 6, 8, 10, 15, 20, 30, 45, 60, and 120 min after addition of the competitor. Sultiame, zonisamide, and topiramate concentrations were then analyzed. All samples were centrifuged at 18 620 g for 1 minutes at 4°C. Plasma, erythrocyte, and urine fractions were stored separately at − 80°C prior to analysis for a maximum of 9 months. For analysis, plasma and hemolyzed erythrocytes samples were subjected to protein precipitation with MeOH containing the internal‐standard sultiame D4 and quantified with the previously described HPLC‐MS/MS method, using matrix‐matched calibration and quality controls. The sultiame concentrations determined in erythrocytes were corrected for the 10% interstitial plasma remnant in the erythrocyte fraction after centrifugation.14

[2] = set-up: method as in earlier work; conditions: manufacturer's information ref 8; cited from earlier work
[3] = plasma, single oral dose 50 mg, n = 4, geometric mean (CV%)
[4] = plasma, single oral dose 100 mg, n = 4, geometric mean (CV%)
[5] = plasma, single oral dose 200 mg, n = 4, geometric mean (CV%)
[6] = single oral dose 50 mg, n = 4, geometric mean (CV%)
[7] = single oral dose 100 mg, n = 4, geometric mean (CV%)
[8] = single oral dose 200 mg, n = 4, geometric mean (CV%)
[9] = whole blood, single oral dose 50 mg, n = 4, geometric mean (CV%)
[10] = whole blood, single oral dose 100 mg, n = 4, geometric mean (CV%)
[11] = whole blood, single oral dose 200 mg, n = 4, geometric mean (CV%)
[12] = 37 °C, deduced using Arrhenius' law

increase in plasma Cmax for each doubling of dose ([1]; between dose levels 50, 100, 200 mg): 10 fold | increase in urinary recovery of unchanged sultiame ([1]; between the 50 and 200 mg doses): about 10 fold | half-life ([1]; whole blood, oral, noncompartmental, highest observed, read-out: whole blood t1/2): ≤ 312 h | Cmax [1, 3]: 20 ng/mL | AUC [1, 3]: 1.24 µg·h/mL | half-life ([1]; plasma, single oral dose 50 mg, n = 4, geometric mean (CV%), read-out: t1/2 (converted)): 50.8 h | Tmax ([1]; plasma, single oral dose 50 mg, n = 4): 7 h | Cmax [1, 4]: 180 ng/mL | AUC [1, 4]: 8.57 µg·h/mL | half-life ([1]; plasma, single oral dose 100 mg, n = 4, geometric mean (CV%), read-out: t1/2 (converted)): 90.9 h | Tmax ([1]; plasma, single oral dose 100 mg, n = 4): 2 h | Cmax [1, 5]: 1880 ng/mL | AUC [1, 5]: 24 µg·h/mL | half-life ([1]; plasma, single oral dose 200 mg, n = 4, geometric mean (CV%), read-out: t1/2 (converted)): 40 h | Tmax ([1]; plasma, single oral dose 200 mg, n = 4): 1.5 h | CL renal [1, 6]: 2.83 mL/min | CL renal [1, 7]: 2.33 mL/min | CL renal [1, 8]: 2.17 mL/min | Cmax [1, 9]: 7910 ng/mL | AUC [1, 9]: 3320 µg·h/mL | half-life ([1]; whole blood, single oral dose 50 mg, n = 4, geometric mean (CV%), read-out: t1/2 (converted)): 313 h | Tmax ([1]; whole blood, single oral dose 50 mg, n = 4): 3 h | Cmax [1, 10]: 15900 ng/mL | AUC [1, 10]: 4540 µg·h/mL | half-life ([1]; whole blood, single oral dose 100 mg, n = 4, geometric mean (CV%), read-out: t1/2 (converted)): 233 h | Tmax ([1]; whole blood, single oral dose 100 mg, n = 4): 5.01 h | Cmax [1, 11]: 17200 ng/mL | AUC [1, 11]: 4530 µg·h/mL | half-life ([1]; whole blood, single oral dose 200 mg, n = 4, geometric mean (CV%), read-out: t1/2 (converted)): 253 h | Tmax ([1]; whole blood, single oral dose 200 mg, n = 4): 2.5 h | CL/F [1, 3]: 40.4 (93) L/h | V/F [1, 3]: 2964 (21) L | CL/F [1, 4]: 11.7 (25) L/h | V/F [1, 4]: 1529 (21) L | CL/F [1, 5]: 8.3 (26) L/h | V/F [1, 5]: 480 (26) L | Recovery unchanged [1, 6]: 1.61 (17) % | Recovery unchanged [1, 7]: 5.24 (111) % | Recovery unchanged [1, 8]: 16.73 (36) % | CL/F [1, 9]: 0.015 (37) L/h | V/F [1, 9]: 6.8 (21) L | CL/F [1, 10]: 0.008 (34) L/h | V/F [1, 10]: 7.4 (21) L | CL/F [1, 11]: 0.044 (41) L/h | V/F [1, 11]: 16.2 (27) L | erythrocyte/plasma ratio (erythrocytes; concentrations of 10 mg/L or less): 800 | erythrocyte/plasma ratio (erythrocytes; concentrations of 20 mg/L and above): less than 30 | efflux from incubated erythrocytes into blank plasma (erythrocytes; erythrocytes incubated 1 h at 10 and 40 mg/L, 37°C, data not shown): only minute amounts | in vitro binding capacity (erythrocytes; in vitro evaluation): exceeding 20 mg per liter of whole blood | whole blood concentration at which saturation of erythrocytes occurs (erythrocytes; in vitro spiking): ~20 mg/L | time to steady state of erythrocyte/plasma ratio (erythrocytes; spiked fresh human whole blood): about 10 minutes
SMILES: NS(=O)(=O)c1ccc(N2CCCCS2(=O)=O)cc1 [Sultiame]
koff (erythrocytes; [12]): 0.0486 s⁻¹ | kon (erythrocytes; [12]): 560600 M⁻¹ s⁻¹ | Plasma‐free fraction [2]: 71%
